Tests used:
YKL-5-124 = compound: C=CC(=O)Nc1ccc(C(=O)Nc2[nH]nc3c2CN(C(=O)N[C@H](CN(C)C)c2ccccc2)C3(C)C)cc1 [YKL-5-124]; assay: increase in dead-cell fraction, 72 h; higher = more death;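 further: breast cancer cell lines in 384-well plates, stained with Hoechst plus LIVE/DEAD far red dye and imaged, cells above an LDR intensity threshold counted dead, Hoechst-negative corpses included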
BSJ-03-123 = compound: CC(=O)c1c(C)c2cnc(Nc3ccc(N4CCN(CCOCCOCCOCCNC(=O)COc5cccc6c5C(=O)N(C5CCC(=O)NC5=O)C6=O)CC4)cn3)nc2n(C2CCCC2)c1=O [BSJ-03-123]; assay: as above
[1] = compound: CC(=O)c1c(C)c2cnc(Nc3ccc(N4CCNCC4)cn3)nc2n(C2CCCC2)c1=O; assay: as above
[2] = compound: CCN1CCN(Cc2ccc(Nc3ncc(F)c(-c4cc(F)c5nc(C)n(C(C)C)c5c4)n3)nc2)CC1; assay: as above
Neratinib/HKI272 [3] = compound: T1, CCOc1cc2ncc(C#N)c(Nc3ccc(OCc4ccccn4)c(Cl)c3)c2cc1NC(=O)/C=C/CN(C)C [Neratinib/HKI272]; assay: as above
[4] = compound: CCc1cnn2c(NCc3ccc[n+]([O-])c3)cc(N3CCCC[C@H]3CCO)nc12; assay: as above
LEE011/Ribociclib = compound: CN(C)C(=O)c1cc2cnc(Nc3ccc(N4CCNCC4)cn3)nc2n1C1CCCC1 [LEE011/Ribociclib]; assay: as above
THZ531 = compound: CN(C)C/C=C/C(=O)Nc1ccc(C(=O)N2CCC[C@@H](Nc3ncc(Cl)c(-c4c[nH]c5ccccc45)n3)C2)cc1 [THZ531]; assay: as above
THZ1 [5] = compound: T2, CN(C)C/C=C/C(=O)Nc1ccc(C(=O)Nc2cccc(Nc3ncc(Cl)c(-c4c[nH]c5ccccc45)n3)c2)cc1 [THZ1]; assay: as above
Flavopiridol = compound: CN1CC[C@H](c2c(O)cc(O)c3c(=O)cc(-c4ccccc4Cl)oc23)[C@H](O)C1 [Flavopiridol]; assay: as above
Neratinib/HKI272 [6] = compound: T1, Neratinib/HKI272; assay: GR value, 72 h; higher = faster growth (1 = untreated, <0 = killing);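 further: breast cancer and non-malignant breast epithelial lines, nine half-log doses, viable cells counted by Hoechst and LIVE/DEAD dye imaging versus time-zero plates and DMSO controls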
THZ1 [7] = compound: T2, THZ1; assay: as above

MCF7
increase in dead-cell fraction (YKL-5-124; 0.001 µM): 0.0137
increase in dead-cell fraction (YKL-5-124; 0.003162 µM): 0.0144
increase in dead-cell fraction (YKL-5-124; 0.01 µM): 0.0219
increase in dead-cell fraction (YKL-5-124; 0.03162 µM): 0.0284
increase in dead-cell fraction (YKL-5-124; 0.1 µM): 0.0263
increase in dead-cell fraction (YKL-5-124; 0.3162 µM): 0.0411
increase in dead-cell fraction (YKL-5-124; 1 µM): 0.0356
increase in dead-cell fraction (YKL-5-124; 3.162 µM): 0.039
increase in dead-cell fraction (YKL-5-124; 10 µM): 0.203
increase in dead-cell fraction (BSJ-03-123; 0.001 µM): 0.0009
increase in dead-cell fraction (BSJ-03-123; 0.003162 µM): 0.0021
increase in dead-cell fraction (BSJ-03-123; 0.01 µM): 0.0018
increase in dead-cell fraction (BSJ-03-123; 0.03162 µM): 0.0017
increase in dead-cell fraction (BSJ-03-123; 0.1 µM): 0.0038
increase in dead-cell fraction (BSJ-03-123; 0.3162 µM): 0.0034
increase in dead-cell fraction (BSJ-03-123; 1 µM): 0.008
increase in dead-cell fraction (BSJ-03-123; 3.162 µM): 0.0042
increase in dead-cell fraction (BSJ-03-123; 10 µM): 0.274
increase in dead-cell fraction ([1]; 0.0003162 µM): -0.0006
increase in dead-cell fraction ([1]; 0.001 µM): -0.0004
increase in dead-cell fraction ([1]; 0.003162 µM): 0.002
increase in dead-cell fraction ([1]; 0.01 µM): 0.0051
increase in dead-cell fraction ([1]; 0.03162 µM): 0.0099
increase in dead-cell fraction ([1]; 0.1 µM): 0.0195
increase in dead-cell fraction ([1]; 0.3162 µM): 0.022
increase in dead-cell fraction ([1]; 1 µM): 0.0362
increase in dead-cell fraction ([1]; 3.162 µM): 0.0308
increase in dead-cell fraction ([2]; 0.001 µM): 0.0009
increase in dead-cell fraction ([2]; 0.003162 µM): 0.0022
increase in dead-cell fraction ([2]; 0.01 µM): 0.0141
increase in dead-cell fraction ([2]; 0.03162 µM): 0.0241
increase in dead-cell fraction ([2]; 0.1 µM): 0.0305
increase in dead-cell fraction ([2]; 0.3162 µM): 0.0363
increase in dead-cell fraction ([2]; 1 µM): 0.0543
increase in dead-cell fraction ([2]; 3.162 µM): 0.277
increase in dead-cell fraction ([2]; 10 µM): 0.373
increase in dead-cell fraction (Neratinib/HKI272 [3]; 0.0003162 µM): 0
increase in dead-cell fraction (Neratinib/HKI272 [3]; 0.001 µM): 0.0036
increase in dead-cell fraction (Neratinib/HKI272 [3]; 0.003162 µM): 0.0018
increase in dead-cell fraction (Neratinib/HKI272 [3]; 0.01 µM): 0.0034
increase in dead-cell fraction (Neratinib/HKI272 [3]; 0.03162 µM): 0.0035
increase in dead-cell fraction (Neratinib/HKI272 [3]; 0.1 µM): 0.0017
increase in dead-cell fraction (Neratinib/HKI272 [3]; 0.3162 µM): 0.0089
increase in dead-cell fraction (Neratinib/HKI272 [3]; 1 µM): 0.0125
increase in dead-cell fraction (Neratinib/HKI272 [3]; 3.162 µM): 0.164
increase in dead-cell fraction ([4]; 0.0001 µM): 0.0003
increase in dead-cell fraction ([4]; 0.0003162 µM): -0.0006
increase in dead-cell fraction ([4]; 0.001 µM): -0.0004
increase in dead-cell fraction ([4]; 0.003162 µM): 0.0012
increase in dead-cell fraction ([4]; 0.01 µM): 0.0757
increase in dead-cell fraction ([4]; 0.03162 µM): 0.319
increase in dead-cell fraction ([4]; 0.1 µM): 0.272
increase in dead-cell fraction ([4]; 0.3162 µM): 0.225
increase in dead-cell fraction ([4]; 1 µM): 0.229
increase in dead-cell fraction (LEE011/Ribociclib; 0.001 µM): 0.0006
increase in dead-cell fraction (LEE011/Ribociclib; 0.003162 µM): 0.0004
increase in dead-cell fraction (LEE011/Ribociclib; 0.01 µM): 0.0034
increase in dead-cell fraction (LEE011/Ribociclib; 0.03162 µM): 0.0049
increase in dead-cell fraction (LEE011/Ribociclib; 0.1 µM): 0.0006
increase in dead-cell fraction (LEE011/Ribociclib; 0.3162 µM): 0.0139
increase in dead-cell fraction (LEE011/Ribociclib; 1 µM): 0.0076
increase in dead-cell fraction (LEE011/Ribociclib; 3.162 µM): 0.0151
increase in dead-cell fraction (LEE011/Ribociclib; 10 µM): 0.0147
increase in dead-cell fraction (THZ531; 0.0001 µM): 0.0003
increase in dead-cell fraction (THZ531; 0.0003162 µM): -0.0011
increase in dead-cell fraction (THZ531; 0.001 µM): 0.0038
increase in dead-cell fraction (THZ531; 0.003162 µM): -0.0013
increase in dead-cell fraction (THZ531; 0.01 µM): 0.0059
increase in dead-cell fraction (THZ531; 0.03162 µM): 0.0084
increase in dead-cell fraction (THZ531; 0.1 µM): 0.125
increase in dead-cell fraction (THZ531; 0.3162 µM): 0.185
increase in dead-cell fraction (THZ531; 1 µM): 0.355
increase in dead-cell fraction (THZ1 [5]; 0.0001 µM): -0.0005
increase in dead-cell fraction (THZ1 [5]; 0.0003162 µM): 0.0028
increase in dead-cell fraction (THZ1 [5]; 0.001 µM): 0.0017
increase in dead-cell fraction (THZ1 [5]; 0.003162 µM): 0.0005
increase in dead-cell fraction (THZ1 [5]; 0.01 µM): 0.0078
increase in dead-cell fraction (THZ1 [5]; 0.03162 µM): 0.0606
increase in dead-cell fraction (THZ1 [5]; 0.1 µM): 0.196
increase in dead-cell fraction (THZ1 [5]; 0.3162 µM): 0.176
increase in dead-cell fraction (THZ1 [5]; 1 µM): 0.338
increase in dead-cell fraction (Flavopiridol; 0.0001 µM): -0.0023
increase in dead-cell fraction (Flavopiridol; 0.0003162 µM): 0.0009
increase in dead-cell fraction (Flavopiridol; 0.001 µM): 0.0003
increase in dead-cell fraction (Flavopiridol; 0.003162 µM): 0.0007
increase in dead-cell fraction (Flavopiridol; 0.01 µM): 0.0049
increase in dead-cell fraction (Flavopiridol; 0.03162 µM): 0.0017
increase in dead-cell fraction (Flavopiridol; 0.1 µM): 0.0144
increase in dead-cell fraction (Flavopiridol; 0.3162 µM): 0.257
increase in dead-cell fraction (Flavopiridol; 1 µM): 0.183
GR value (Neratinib/HKI272 [6]; 0.0003162 µM): 1.04 GR
GR value (Neratinib/HKI272 [6]; 0.001 µM): 1.03 GR
GR value (Neratinib/HKI272 [6]; 0.003162 µM): 0.998 GR
GR value (Neratinib/HKI272 [6]; 0.01 µM): 0.951 GR
GR value (Neratinib/HKI272 [6]; 0.03162 µM): 0.947 GR
GR value (Neratinib/HKI272 [6]; 0.1 µM): 0.931 GR
GR value (Neratinib/HKI272 [6]; 0.3162 µM): 0.774 GR
GR value (Neratinib/HKI272 [6]; 1 µM): 0.657 GR
GR value (Neratinib/HKI272 [6]; 3.162 µM): 0.0611 GR
GR value (THZ1 [7]; 0.0001 µM): 1.08 GR
GR value (THZ1 [7]; 0.0003162 µM): 0.931 GR
GR value (THZ1 [7]; 0.001 µM): 0.926 GR
GR value (THZ1 [7]; 0.003162 µM): 0.941 GR
GR value (THZ1 [7]; 0.01 µM): 0.78 GR
GR value (THZ1 [7]; 0.03162 µM): 0.366 GR
GR value (THZ1 [7]; 0.1 µM): -0.103 GR
GR value (THZ1 [7]; 0.3162 µM): -0.305 GR
GR value (THZ1 [7]; 1 µM): -0.461 GR

— the supplement of paper PMC9663587
